{"source": "patent US6962922B2", "about": "“Alkynylated quinazoline compounds” (Warner-Lambert Company LLC, priority 2001, dated 2005)", "data": [{"units": {"melting point": "°C"}, "values": [{"smiles": "Cn1c(=O)n(Cc2ccc(CO)cc2)c(=O)c2cc(C#CCc3ccccc3)ccc21", "note": "[Example 24, 3-(4-Hydroxymethyl-benzyl)-1-methyl-6-(3-phenyl-prop-1-ynyl)-1H-quinazoline-2,4-dione]", "melting point": "161 to 164"}, {"smiles": "Cn1c(=O)n(Cc2cccc(Cl)c2)c(=O)c2cc(C#CCc3ccc(Cl)cc3)ccc21", "note": "[Example 31, 3-(3-Chloro-benzyl)-6-[3-(4-chloro-phenyl)-prop-1-ynyl]-1-methyl-1H-quinazoline-2,4-dione]", "melting point": "169 to 171"}, {"smiles": "Cn1c(=O)n(Cc2ccc(F)c(F)c2)c(=O)c2cc(C#CCn3cncn3)ccc21", "note": "[Example 33, 3-(3,4-Difluoro-benzyl)-1-methyl-6-(3-[1,2,4]triazol-1-yl-prop-1-ynyl)-1H-quinazoline-2,4-dione]", "melting point": "185 to 187"}, {"smiles": "Cn1c(=O)n(Cc2ccc(F)c(F)c2)c(=O)c2cc(C#CCc3ccc(Cl)cc3)ccc21", "note": "[Example 30, 6-[3-(4-Chloro-phenyl)-prop-1-ynyl]-3-(3,4-difluoro-benzyl)-1-methyl-1H-quinazoline-2,4-dione]", "melting point": "163 to 165"}, {"smiles": "Cn1c(=O)n(Cc2ccc(Cl)cc2)c(=O)c2cc(C#CCc3ccccc3)ccc21", "note": "[Example 27, 3-(4-Chloro-benzyl)-1-methyl-6-(3-phenyl-prop-1-ynyl)-1H-quinazoline-2,4-dione]", "melting point": "175 to 176"}, {"smiles": "Cn1c(=O)n(Cc2ccc(Cl)c(Cl)c2)c(=O)c2cc(C#CCn3cncn3)ccc21", "note": "[Example 34, 3-(3,4-Dichloro-benzyl)-1-methyl-6-(3-[1,2,4]triazol-1-yl-prop-1-ynyl)-1H-quinazoline-2,4-dione]", "melting point": "171 to 172"}, {"smiles": "Cn1c(=O)n(Cc2cccc(Cl)c2)c(=O)c2cc(C#CCc3ccccc3)ccc21", "note": "[Example 25, 3-(3-Chloro-benzyl)-1-methyl-6-(3-phenyl-prop-ynyl)-1H-quinazoline-2,4-dione]", "melting point": "164 to 166"}, {"smiles": "CN(C)C(=O)c1ccc(Cn2c(=O)c3cc(C#CCc4ccccc4)ccc3n(C)c2=O)cc1", "note": "[Example 19, N,N-Dimethyl-4-[1-methyl-2,4-dioxo-6-(3-phenyl-prop-1-ynyl)-1,4-dihydro-2H-quinazolin-3-ylmethyl]-benzamide]", "melting point": "171 to 173"}, {"smiles": "Cn1c(=O)n(Cc2ccc(F)c(F)c2)c(=O)c2cc(C#CCn3ccnn3)ccc21", "note": "[Example 32, 3-(3,4-Difluoro-benzyl)-1-methyl-6-(3-[1,2,3]triazol-1-yl-prop-1-ynyl)-1H-quinazoline-2,4-dione]", "melting point": "167 to 169"}, {"smiles": "Cn1c(=O)n(Cc2ccc(F)c(F)c2)c(=O)c2cc(C#CCn3ccnc3)ccc21", "note": "[Example 29, 3-(3,4-Difluoro-benzyl)-6-(3-imidazol-1-yl-prop-1-ynyl)-1-methyl-1H-quinazoline-2,4-dione]", "melting point": "163 to 165"}, {"smiles": "Cn1c(=O)n(Cc2cccc(F)c2)c(=O)c2cc(C#CCc3ccccc3)ccc21", "note": "[Example 26, 3-(3-Fluoro-benzyl)-1-methyl-6-(3-phenyl-prop-1-ynyl)-1H-quinazoline-2,4-dione]", "melting point": "143 to 144"}]}]}
